Experimental data from US7851474B2, “Dipiperazinyl ketones and related analogues” (Neurogen Corporation, priority 2005, dated 2010).

Molecular target: T1, chimeric human H3 receptor (Homo sapiens, UniProt Q9Y5N1, E19D)
T1 construct: made in house; host or cells: Sf9 insect cells (baculovirus infection); P2 membrane preparation
Experiment: Chimeric human H3 receptor GTP binding assay (agonist-stimulated GTP-gamma35S binding, Example 7)
Type: biochemical
Conditions: not given
From the text: This Example illustrates a representative assay for evaluating agonist-stimulated GTP-gamma^35S binding (“GTP binding”) activity. […] This agonist-stimulated GTP binding activity can also be used to detect partial agonism mediated by antagonist compounds. A compound analyzed in this assay is referred to herein as a “test compound.”
Four independent baculoviral stocks (one directing the expression of the chimeric human H3 receptor and three directing the expression of each of the three subunits of a heterotrimeric G-protein) are used to infect a culture of Sf9 cells as described above. P2 membranes are prepared as described above, and agonist-stimulated GTP binding on the P2 membranes is assessed using histamine (Sigma Chemical Co., St. Louis, Mo.) as agonist in order to ascertain that the receptor/G-protein-alpha-beta-gamma combination(s) yield a functional response as measured by GTP binding. P2 membranes are resuspended by Dounce homogenization (tight pestle) in GTP binding assay buffer (50 mM Tris pH 7.4, 120 mM NaCl, 5 mM MgCl2, 2 mM EGTA, 1 mg/ml BSA, 0.2 mg/ml bacitracin, 0.02 mg/ml aprotinin, 0.01 mg/ml saponin, 10 μM GDP) and added to assay tubes at a concentration of 35 μg protein/reaction tube. […] In competition experiments, non-radiolabeled test compounds are added to separate reactions at concentrations ranging from 10^−10 M to 10^−6 M along with 1 μM histamine to yield a final volume of 0.20 ml.
Neutral antagonists are antagonists that are substantially free of inherent agonist activity, and include those test compounds that reduce the histamine-stimulated GTP binding activity towards, but not below, baseline levels. In contrast, in the absence of added histamine, inverse agonists reduce the GTP binding activity of the receptor-containing membranes below baseline.
After a 60-min incubation at room temperature, reactions are terminated by vacuum filtration over WHATMAN GF/C filters (pre-soaked in wash buffer, 0.1% BSA) followed by washing with ice-cold wash buffer (50 mM Tris pH 7.4, 120 mM NaCl). The amount of receptor-bound (and thereby membrane-bound) GTP-gamma^35S is determined by measuring the filter-bound radioactivity, preferably by liquid scintillation spectrometry of the washed filters. […] Data is expressed as percent above basal (baseline). The results of GTP binding experiments are analyzed using SIGMAPLOT software (SPSS Inc., Chicago, Ill.).
IC50 values are calculated by non-linear regression analysis of dose-response curves using Kaleidograph (Synergy Software, Reading, Pa.).

T1 sequence (Q9Y5N1 with tags, fused parts or gaps E19D): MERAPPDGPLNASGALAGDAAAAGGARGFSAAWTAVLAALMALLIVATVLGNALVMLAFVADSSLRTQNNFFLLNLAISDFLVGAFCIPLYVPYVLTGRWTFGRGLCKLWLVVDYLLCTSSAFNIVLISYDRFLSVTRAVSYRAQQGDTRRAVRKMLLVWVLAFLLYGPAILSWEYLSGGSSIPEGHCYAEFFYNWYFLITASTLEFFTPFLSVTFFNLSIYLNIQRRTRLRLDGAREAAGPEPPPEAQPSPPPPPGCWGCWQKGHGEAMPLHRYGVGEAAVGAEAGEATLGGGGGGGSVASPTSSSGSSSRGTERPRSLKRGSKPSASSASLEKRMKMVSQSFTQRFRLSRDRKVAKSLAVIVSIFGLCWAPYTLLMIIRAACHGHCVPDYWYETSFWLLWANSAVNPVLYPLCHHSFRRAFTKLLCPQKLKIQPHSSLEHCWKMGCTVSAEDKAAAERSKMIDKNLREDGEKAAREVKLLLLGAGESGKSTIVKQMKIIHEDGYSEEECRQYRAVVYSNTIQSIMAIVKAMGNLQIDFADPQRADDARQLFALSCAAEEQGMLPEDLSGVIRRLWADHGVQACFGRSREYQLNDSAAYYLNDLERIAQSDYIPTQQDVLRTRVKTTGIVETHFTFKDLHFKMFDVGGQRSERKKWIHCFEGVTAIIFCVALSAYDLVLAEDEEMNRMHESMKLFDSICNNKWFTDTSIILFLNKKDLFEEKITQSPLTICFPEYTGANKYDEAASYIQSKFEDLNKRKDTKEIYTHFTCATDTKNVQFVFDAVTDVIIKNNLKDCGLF

Row | Compound | Ki [nM]
1 | O=C(CN1CCN(c2ccc3c(c2)OCO3)CC1)N1CCN(C2CCCC2)CC1 [Compound 257, 1-(1,3-benzodioxol-5-yl)-4-[2-(4-cyclopentylpiperazin-1-yl)-2-oxoethyl]piperazine] | < 1000
2 | CC(C)N1CCN(C(=O)CN2CCN(c3ccc4c(c3)OCO4)CC2)CC1 [Compound 258, 1-(1,3-benzodioxol-5-yl)-4-[2-(4-isopropylpiperazin-1-yl)-2-oxoethyl]piperazine] | < 1000
3 | CC(C)N1CCN(C(=O)CN2CCN(c3cccc(Cl)c3Cl)CC2)CC1 [Compound 262, 1-(2,3-dichlorophenyl)-4-[2-(4-isopropylpiperazin-1-yl)-2-oxoethyl]piperazine] | < 1000

Same assay, conditions: assay of Example 7; "*" in Ki of Table II; read-out: Ki

Row | Ki [nM] | Compound
4 | < 1000 | CC(=O)c1ccc(N2C[C@@H](C)N(CC(=O)N3CCN(C4CCC4)CC3)C[C@@H]2C)cc1 (relative stereo) [Compound 1269, rel-1-(4-{(2R,5S)-4-[2-(4-cyclobutylpiperazin-1-yl)-2-oxoethyl]-2,5-dimethylpiperazin-1-yl}phenyl)ethanone]

Same assay, conditions: assay of Example 7; symbol * in column headed Ki of Table II; read-out: Ki

Row | Compound | Ki [nM]
5 | O=C(CN1CCN(c2ccc(F)cc2F)CC1)N1C[C@H]2C[C@@H]1CN2C1CCC1 [Compound 247, (1R,4R)-2-cyclobutyl-5-{[4-(2,4-difluorophenyl)piperazin-1-yl]acetyl}-2,5-diaza bicyclo[2.2.1]heptane] | < 1000
6 | O=C(c1ccccc1)c1ccc(N2CCN(CC(=O)N3CCN(C4CCC4)CC3)CC2)cc1 [Compound 248, (4-{4-[2-(4-cyclobutylpiperazin-1-yl)-2-oxoethyl]piperazin-1-yl}phenyl)(phenyl)methanone] | < 1000
7 | O=C(c1ccc(N2CCN(CC(=O)N3CCN(C4CCC4)CC3)CC2)cc1)C1CC1 [Compound 249, (4-{4-[2-(4-cyclobutylpiperazin-1-yl)-2-oxoethyl]piperazin-1-yl}phenyl)(cyclopropyl) methanone] | < 1000
8 | O=C(c1ccncc1)c1ccc(N2CCN(CC(=O)N3CCN(C4CCC4)CC3)CC2)cc1 [Compound 250, (4-{4-[2-(4-cyclobutylpiperazin-1-yl)-2-oxoethyl]piperazin-1-yl}phenyl)(pyridin-4-yl)methanone] | < 1000
9 | O=C(c1ccccc1)c1ccc(N2CCN(CC(=O)N3CCN(C4CCCC4)CC3)CC2)cc1 [Compound 251, (4-{4-[2-(4-cyclopentylpiperazin-1-yl)-2-oxoethyl]piperazin-1-yl}phenyl)(phenyl)methanone] | < 1000
10 | O=C(CN1CCN(c2cccc(C(=O)N3CC[C@H]4CCCC[C@@H]4C3)c2)CC1)N1CCN(C2CCC2)CC1 [Compound 252, (4aR,8aS)-2-(3-{4-[2-(4-cyclobutylpiperazin-1-yl)-2-oxoethyl]piperazin-1-yl}benzoyl) decahydroisoquinoline] | < 1000
11 | O=C(CN1CCN(c2ccc(C(=O)N3CC[C@H]4CCCC[C@@H]4C3)cc2)CC1)N1CCN(C2CCC2)CC1 [Compound 253, (4aR,8aS)-2-(4-{4-[2-(4-cyclobutylpiperazin-1-yl)-2-oxoethyl]piperazin-1-yl}benzoyl) decahydroisoquinoline] | < 1000
12 | O=C(CN1CCN(c2cccc(C(=O)N3CC[C@@H]4CCCC[C@@H]4C3)c2)CC1)N1CCN(C2CCC2)CC1 [Compound 254, (4aS,8aS)-2-(3-{4-[2-(4-cyclobutylpiperazin-1-yl)-2-oxoethyl]piperazin-1-yl}benzoyl) decahydroisoquinoline] | < 1000
13 | O=C(CN1CCN(c2ccc(C(=O)N3CC[C@@H]4CCCC[C@@H]4C3)cc2)CC1)N1CCN(C2CCC2)CC1 [Compound 255, (4aS,8aS)-2-(4-{4-[2-(4-cyclobutylpiperazin-1-yl)-2-oxoethyl]piperazin-1-yl}benzoyl) decahydroisoquinoline] | < 1000
14 | CC(C)N1CCN(C(=O)CN2CCN(c3ccc(F)cc3F)CC2)CC1 [Compound 264, 1-(2,4-difluorophenyl)-4-[2-(4-isopropylpiperazin-1-yl)-2-oxoethyl]piperazine] | < 1000
15 | Cc1cccc(C)c1N1CCN(CC(=O)N2CCN(C(C)C)CC2)CC1 [Compound 268, 1-(2,6-dimethylphenyl)-4-[2-(4-isopropylpiperazin-1-yl)-2-oxoethyl]piperazine] | < 1000
16 | CC(=O)c1cnc(N2CCN(CC(=O)N3CCN(C4CCC4)CC3)CC2)nc1 [Compound 269, 1-(2-{4-[2-(4-cyclobutylpiperazin-1-yl)-2-oxoethyl]piperazin-1-yl}pyrimidin-5-yl)ethanone] | < 1000
17 | Cc1ccc(F)c(-c2ccc(N3CCN(CC(=O)N4CCN(C5CCC5)CC4)CC3)cc2)c1Cl [Compound 273, 1-(2′-chloro-6′-fluoro-3′-methylbiphenyl-4-yl)-4-[2-(4-cyclobutylpiperazin-1-yl)-2-oxoethyl]piperazine] | < 1000
18 | O=C(CN1CCN(c2ccc(-c3ccccc3Cl)cc2)CC1)N1CCN(C2CCC2)CC1 [Compound 278, 1-(2′-chlorobiphenyl-4-yl)-4-[2-(4-cyclobutylpiperazin-1-yl)-2-oxoethyl]piperazine] | < 1000

Other lines, results leading:

Row | Ki [nM] | Compound
19 | < 1000 | CC(C)N1CCN(C(=O)CN2CCN(c3ccc(Cl)c(Cl)c3)CC2)CC1 [Compound 283, 1-(3,4-dichlorophenyl)-4-[2-(4-isopropylpiperazin-1-yl)-2-oxoethyl]piperazine]
20 | < 1000 | CCN1CCN(C(=O)CN2CCN(c3ccc(OC)c(OC)c3)CC2)CC1 [Compound 284, 1-(3,4-dimethoxyphenyl)-4-[2-(4-ethylpiperazin-1-yl)-2-oxoethyl]piperazine]
21 | < 1000 | COc1ccc(N2CCN(CC(=O)N3CCN(C(C)C)CC3)CC2)cc1OC [Compound 285, 1-(3,4-dimethoxyphenyl)-4-[2-(4-isopropylpiperazin-1-yl)-2-oxoethyl]piperazine]
22 | < 1000 | CC(=O)c1ccc(-c2cccc(N3CCN(CC(=O)N4CCN(C5CCC5)CC4)CC3)c2)cc1 [Compound 288, 1-(3′-{4-[2-(4-cyclobutylpiperazin-1-yl)-2-oxoethyl]piperazin-1-yl}biphenyl-4-yl)ethanone]
23 | < 1000 | O=C(CN1CCN(c2cccc(C(=O)N3CCCCCC3)c2)CC1)N1CCN(C2CCC2)CC1 [Compound 289, 1-(3-{4-[2-(4-cyclobutylpiperazin-1-yl)-2-oxoethyl]piperazin-1-yl}benzoyl)azepane]
24 | < 1000 | O=C(CN1CCN(c2cccc(Br)c2)CC1)N1CCN(C2CCC2)CC1 [Compound 293, 1-(3-bromophenyl)-4-[2-(4-cyclobutylpiperazin-1-yl)-2-oxoethyl]piperazine]
25 | < 1000 | CC(=O)c1ccc(N2CCN(CC(=O)N3CCN(C4CCC4)CC3)CC2)c(Cl)c1 [Compound 295, 1-(3-chloro-4-{4-[2-(4-cyclobutylpiperazin-1-yl)-2-oxoethyl]piperazin-1-yl}phenyl)ethanone]
26 | < 1000 | O=C(CN1CCN(c2ccc(-c3ccc(F)c(Cl)c3)cc2)CC1)N1CCN(C2CCC2)CC1 [Compound 297, 1-(3′-chloro-4′-fluorobiphenyl-4-yl)-4-[2-(4-cyclobutylpiperazin-1-yl)-2-oxoethyl]piperazine]
27 | < 1000 | O=C(CN1CCN(c2ccc(-c3cccc(Cl)c3)cc2)CC1)N1CCN(C2CCC2)CC1 [Compound 300, 1-(3′-chlorobiphenyl-4-yl)-4-[2-(4-cyclobutylpiperazin-1-yl)-2-oxoethyl]piperazine]
28 | < 1000 | O=C(CN1CCN(c2cccc(Cl)c2)CC1)N1CCN(C2CCC2)CC1 [Compound 301, 1-(3-chlorophenyl)-4-[2-(4-cyclobutylpiperazin-1-yl)-2-oxoethyl]piperazine]
